This experiment deals with T1, P-selectin (Homo sapiens, UniProt P16109).
T1 sequence (P16109 whole entry): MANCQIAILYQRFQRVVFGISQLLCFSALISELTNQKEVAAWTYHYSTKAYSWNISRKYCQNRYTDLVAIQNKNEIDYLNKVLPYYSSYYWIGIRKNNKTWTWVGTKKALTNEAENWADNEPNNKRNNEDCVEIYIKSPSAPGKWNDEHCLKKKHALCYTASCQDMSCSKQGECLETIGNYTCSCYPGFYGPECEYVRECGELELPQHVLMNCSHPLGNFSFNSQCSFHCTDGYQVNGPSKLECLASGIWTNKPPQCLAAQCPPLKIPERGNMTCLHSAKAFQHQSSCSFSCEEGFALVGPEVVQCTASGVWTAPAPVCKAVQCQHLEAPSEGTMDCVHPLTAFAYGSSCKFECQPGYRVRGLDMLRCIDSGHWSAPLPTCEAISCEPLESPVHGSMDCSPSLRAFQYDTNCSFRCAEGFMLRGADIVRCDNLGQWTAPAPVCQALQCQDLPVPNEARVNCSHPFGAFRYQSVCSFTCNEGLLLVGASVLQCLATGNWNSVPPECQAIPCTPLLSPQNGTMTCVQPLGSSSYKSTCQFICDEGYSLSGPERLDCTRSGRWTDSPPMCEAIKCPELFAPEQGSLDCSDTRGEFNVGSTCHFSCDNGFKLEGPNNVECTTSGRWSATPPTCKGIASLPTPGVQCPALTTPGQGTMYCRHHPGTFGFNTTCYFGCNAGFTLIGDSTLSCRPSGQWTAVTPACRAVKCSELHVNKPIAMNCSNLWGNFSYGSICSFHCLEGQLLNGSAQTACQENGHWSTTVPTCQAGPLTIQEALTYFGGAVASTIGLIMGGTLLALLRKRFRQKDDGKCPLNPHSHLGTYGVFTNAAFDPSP
The experiment in a line: Blocking activity on Selectin P ligand binding.

In the case of `CC(=O)N[C@H]1[C@H]([C@H](O)[C@H](O)CO)O[C@@](O[C@H]2[C@@H](O)[C@@H](CO)O[C@@H](O[C@@H]([C@H](O[C@@H]3O[C@@H](C)[C@@H](O)[C@@H](O)[C@@H]3O)[C@H](C=O)NC(C)=O)[C@H](O)CO)[C@@H]2O)(C(=O)O)C[C@@H]1O` [SIALYL LEWIS X], the IC50 (in general, the concentration that gives 50% inhibition) is more than 1 mM.

Source of the values: ChEMBL document CHEMBL1129394, “Studies on selectin blocker. 3. Investigation of the carbohydrate ligand sialyl Lewis X recognition site of P-selectin” (J Med Chem, 1996).
